From patent US10793589B2, “Resorcinarene-based amphipathic compound and use thereof” (Industry-University Cooperation Foundation Hanyang …, priority 2016, dated 2020)
“Also recorded” adds a separate entry of the source. Like-named read-outs stand apart in the source and are kept apart here.

Legend:
[1] = tested on: leucine transporter (LeuT); assay: LeuT structural stability, [3H]-Leu binding by scintillation proximity assay (SPA); type: biochemical, Aquifex aeolicus; details: CMC+0.04 wt % versus CMC+0.2 wt %
Method: FIGS. 7A and 7B are a set of graphs illustrating a result of measuring the structural stability of a leucine transporter (LeuT) solubilized in RGAs or DDM evaluated at CMC+0.04 wt % (a) or CMC+0.2 wt % (b). Protein stability was determined by measuring the ability of the transporter to bind a radiolabeled ligand ([3H]-Leu) via scintillation proximity assay (SPA). The substrate binding ability of LeuT was measured at regular intervals during 10 days of incubation of the protein at room temperature in the presence of individual amphipathic compounds.
FIGS. 8A and 8B are a set of graphs illustrating a result of measuring the structural stability of a leucine transporter (LeuT) solubilized in RMAs or DDM evaluated at CMC+0.04 wt % (a) or CMC+0.2 wt % (b). Protein stability was determined by measuring the ability of the transporter to bind a radiolabeled ligand ([3H]-Leu) via scintillation proximity assay (SPA). The substrate binding ability of LeuT was measured at regular intervals during 10 days of incubation of the protein at room temperature in the presence of individual amphipathic compounds.
An experiment was carried out to measure the structural stability of a leucine transporter (LeuT) caused by RGAs and RMAs. The concentrations of individual amphipathic compounds were (a) CMC+0.04 wt % or (b) CMC+0.2 wt %, and the substrate binding characteristic of LeuT was measured by scintillation proximity assay (SPA) using [^3H]-Leu. […]
Specifically, wild type LeuT derived from Aquifex aeolicus which is a thermophilic bacterium was purified according to the method described in the paper (Nature 1998, 392, 353-358) written by G. Deckert et al. LeuT was expressed in E. coli C41 (DE3) transformed with pET16b encoding a C-terminal 8×His-tagged transporter (an expression plasmid was provided by Dr. E. Gouaux (Vollum Institute, Portland, Oreg., USA)). […] The protein samples were stored at room temperature for 10 days and centrifuged at designated time points, and protein characteristics were determined by measuring the binding capacity of [^3H]-Leucine using SPA. […]

[2] = Hydrodynamic radius and size distribution of micelles by dynamic light scattering (DLS); type: physicochemical; details: compound 1.0 wt %
Method: A method of measuring the radius of a micelle is not particularly limited and may be any method generally known in the art. For example, the radius may be measured by a dynamic light scattering (DLS) experiment.
(§1) Specifically, critical micelle concentrations (CMCs) were measured using a fluorescence dye, diphenylhexatriene (DPH), and hydrodynamic radii (Rh) of micelles formed of each compound (1.0 wt %) were measured by a dynamic light scattering (DLS) experiment. Measured results are shown in Table 1 in comparison with values of DDM as an existing amphipathic molecule (detergent).
Meanwhile, size distributions of the micelles formed by RGAs and RMAs were measured using DLS.

[3] = biological target: T1, Salmonella typhimurium melibiose permease (MelB) (Salmonella typhimurium, UniProt P30878); assay: MelB extraction and solubility after 90 min incubation, SDS-PAGE and western blotting; type: biochemical; details: 1.5 wt %
T1 construct: made in house; host or cells: E. coli DW2 (melB and lacZY deleted), plasmid pK95AHB/WT MelBSt/CH10
Method: FIGS. 9A and 9B illustrate a result of measuring the amount of a MelB protein dissolved in an aqueous solution after a MelB protein was extracted at four temperatures (0, 45, 55, and 65) using RGAs or DDM at a concentration of 1.5 wt % and then incubated at the same temperatures for 90 minutes:
RGAs were selected, and an experiment was carried out to measure the structural stability of a Salmonella typhimurium melibiose permease (MelB) caused by RGAs. A MelB protein was extracted from a membrane using RGAs or DDM, and the amount and structure of the protein thus extracted was then analyzed by performing SDS-PAGE and western blotting. In this case, the concentration of the used amphipathic compound was 1.5 wt %. The protein was extracted at four temperatures (0, 45, 55, and 65° C.) and then incubated at the same temperatures for 90 minutes. Subsequently, two kinds of performance of the compound, that is, protein extraction efficiency and protein stability were evaluated at the same time by measuring the amount of a protein which remained dissolved in an aqueous solution. The amount of a protein which was extracted and stabilized by an individual amphipathic molecule was expressed as a relative value (%) with respect to the amount of the entire protein included in a membrane sample not treated with an amphipathic molecule.
Specifically, a C-terminal 10-His-tagged Salmonella typhimurium melibiose permease (MelBSt) was expressed in E. coli DW2 cells (melB and lacZY) using plasmid pK95AHB/WT MelBSt/CH10. Cells were grown and membranes were prepared according to the method described in a paper (Nat. Commun. 2014, 5, 3009) written by A. S. Ethayathulla et al. A protein assay was carried out with a Micro BCA kit (Thermo Scientific, Rockford, Ill.). RGAs and DDM were evaluated to measure the stability of MelBSt according to the protocol described in a paper (Nat. Methods 2010, 7, 1003-1008) written by P. S. Chae et al. The membrane sample (final protein concentration of 10 mg/mL) containing MelBSt was incubated in a solubilization buffer containing 1.5% (w/v) DDM or RGAs (20 mM sodium phosphate, pH 7.5, 200 mM NaCl, 10% glycerol, and 20 mM melibiose) at four temperatures (0, 45, 55, and 65° C.) for 90 minutes. An insoluble material was removed by ultracentrifugation at 355,590 g at 4° C. for 45 minutes using a Beckman Optima™ MAX ultracentrifuge equipped with a TLA-100 rotor. A dissolved portion was separated by SDS-16% PAGE, and immunoblotting was then performed using a Penta-His-HRP antibody (Qiagen, Germantown, Md.). A membrane fraction containing 20 μg of protein without treatment was used to illustrate the overall MelB, and the treated samples were loaded into each well in equal volume. MelBSt was measured using the SuperSignal West Pico Chemiluminescent substrate by ImageQuant LAS 4000 Biomolecular Imager (GE Healthcare Life Sciences).

[4] = Critical micelle concentration by fluorescence dye diphenylhexatriene (DPH); type: physicochemical
Method: A method of measuring the CMC is not particularly limited and may be any method generally known in the art. For example, the CMC may be measured according to a fluorescence staining method using diphenylhexatriene (DPH).
as §1

[5] = biological target: T2, human β2 adrenergic receptor (β2AR) (Homo sapiens, UniProt P07550); assay: β2AR stability, [3H]-dihydroalprenolol (DHA) ligand binding assay; type: biochemical
T2 construct: made in house
Method: FIGS. 10A and 10B illustrate a result of measuring the effect of RGAs on the stability of β2AR after (a) 0 hour and (b) over time. Protein-ligand binding characteristics were measured via ligand binding assay using [^3H]-dihydroalprenolol (DHA), and the measurement was carried out by sampling a protein sample at regular intervals during 2 days of storage at room temperature.
FIGS. 12A and 12B illustrate a result of measuring the effect of RMAs on the stability of β2AR after (a) 0 hour and (b) over time. Protein-ligand binding characteristics were measured via ligand binding assay using [^3H]-dihydroalprenolol (DHA), and the measurement was carried out by sampling a protein sample at regular intervals during 2 days of storage at room temperature.
An experiment was carried out to measure the structural stability of a human (32 adrenergic receptor (β2AR) and a G protein-coupled receptor (GPCR) caused by RGAs and RMAs. That is, a receptor purified with DDM was diluted with a buffer solution containing only each RGA and RMA without cholesteryl hemisuccinate (CHS) or a buffer solution containing CHS and DDM. The final concentration of the compound was CMC+0.2 wt %, and the ligand binding characteristic of the receptor was measured using [^3H]-dihydroalprenolol ([^3H]-DHA) binding.
Specifically, radioligand binding assay was carried out using the following method. β2AR was purified using 0.1% DDM according to the method described in a paper (Science, 2007, 318, 1266-1273.) written by D. M. Rosenbaum et al. and finally concentrated to about 10 mg/ml (about 200 μM). The β2AR purified with DDM was used to prepare a master binding mixture containing 10 nM [^3H]-dihydroalprenolol (DHA) supplemented with 0.5 mg/ml BSA in a 0.2% amphipathic compound (DDM, RGAs or RMAs). The receptor purified with DDM, RGAs or RMAs was incubated with 10 nM [^3H]-DHA at room temperature for 30 minutes. The mixture was loaded into a G-50 column, the flow-through was collected with 1 ml of a binding buffer (20 mM HEPES pH 7.5, 100 mM NaCl, supplemented with 0.5 mg/ml BSA and 20×CMC individual amphipathic compound, and the G-50 column was further filled with 15 ml of a scintillation fluid. Receptor-bound [^3H]-DHA was measured with a scintillation counter (Beckman). The binding capacity of [^3H]-DHA was measured and shown in a column graph. Each experiment was performed in triplicate.

[6] = biological target: T2, human β2 adrenergic receptor (β2AR); assay: Size exclusion chromatography (SEC) of β2AR receptor-detergent complex; details: 20×CMC detergent
Method: FIG. 11 illustrates a result of evaluating the size characteristic of a (32AR protein-ligand binding complex formed of RGA-C11, RGA-C13, or DDM via a size exclusion chromatography (SEC) test.
In addition, a size exclusion chromatography (SEC) test was conducted. Specifically, β2AR purified with 0.1% DDM was loaded on a M1 Flag column in the presence of 2 mM CaCl2, and the column was washed with a DDM, RGA-C11 or RGA-C13 detergent buffer (20 mM HEPES pH 7.5, 100 mM NaCl, 0.2% individual amphipathic compound). The receptor was eluted with 20×CMC DDM, RGA-C11, or RGA-C13 with 5 mM EDTA and 0.2 mg/ml free Flag peptide. The eluate was further added to a Superdex-200 10/300 GL column (GE Healthcare) at 0.5 ml/min, and UV absorbance at 280 nm was recorded. The running buffer contained 20 mM HEPES pH 7.5, 100 mM NaCl, 20×CMC individual detergent (DDM, RGA-C11 and RGA-C13).

T2 sequence (P07550 whole entry): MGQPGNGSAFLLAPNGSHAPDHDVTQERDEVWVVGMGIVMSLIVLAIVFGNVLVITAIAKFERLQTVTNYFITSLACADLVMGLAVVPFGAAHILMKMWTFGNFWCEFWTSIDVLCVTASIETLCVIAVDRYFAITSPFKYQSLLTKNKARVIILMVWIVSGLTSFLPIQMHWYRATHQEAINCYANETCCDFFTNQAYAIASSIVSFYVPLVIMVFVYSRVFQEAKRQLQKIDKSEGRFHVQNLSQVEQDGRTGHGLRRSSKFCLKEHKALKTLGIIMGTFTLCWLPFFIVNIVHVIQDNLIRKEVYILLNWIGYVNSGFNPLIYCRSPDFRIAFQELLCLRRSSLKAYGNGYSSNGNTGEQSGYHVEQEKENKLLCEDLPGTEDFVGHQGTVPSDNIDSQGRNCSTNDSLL
T1 sequence (P30878 whole entry): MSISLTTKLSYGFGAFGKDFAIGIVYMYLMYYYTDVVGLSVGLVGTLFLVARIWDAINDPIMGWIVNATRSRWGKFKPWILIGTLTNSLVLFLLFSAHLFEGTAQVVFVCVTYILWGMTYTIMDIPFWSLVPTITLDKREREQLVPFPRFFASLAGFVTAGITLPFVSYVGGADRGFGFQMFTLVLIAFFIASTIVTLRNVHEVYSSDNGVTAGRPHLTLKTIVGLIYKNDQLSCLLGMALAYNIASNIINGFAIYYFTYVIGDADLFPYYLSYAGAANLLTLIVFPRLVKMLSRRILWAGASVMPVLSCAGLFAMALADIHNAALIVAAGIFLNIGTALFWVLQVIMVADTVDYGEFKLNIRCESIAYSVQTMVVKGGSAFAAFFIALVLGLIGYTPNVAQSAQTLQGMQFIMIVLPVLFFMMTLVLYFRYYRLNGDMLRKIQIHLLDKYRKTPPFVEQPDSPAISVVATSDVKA

SMILES	LeuT stabilization as concentration of compound increased [1]	Rh (nm), hydrodynamic radius of micelles [2] [nm]	MelB protein extraction/solubilization efficiency ([3]; 0° C.)	MelB protein extraction efficiency and solubility ([3]; 45° C.)	MelB protein extraction ([3]; 65° C.)	CMC [4] [mM]	CMC ([4]; DPH fluorescence) [mM]	CMC (wt %) ([4]; DPH fluorescence)	maintaining the ligand binding characteristic of the receptor compared to DDM ([5]; 0 hour, CMC+0.2 wt %, [3H]-DHA)	ability to maintain the ligand binding of the receptor over time compared to DDM ([5]; 2 days at room temperature, early stage (0 to 12 h))	receptor stability / ligand binding maintenance relative to DDM (fold, in words) ([5]; incubation at room temperature, early stage)	MelB protein extraction efficiency and solubility ([3]; 55° C.)	size of receptor-detergent complex [6]
CCCCCCCCCCCCO[C@@H]1O[C@H](CO)[C@@H](O[C@H]2O[C@H](CO)[C@@H](O)[C@H](O)[C@H]2O)[C@H](O)[C@H]1O [DDM, n-dodecyl-β-D-maltopyranoside, reference compound]	constant structural collapse of the solubilized transporter	3.4 ± 0.0	high MelB protein extraction efficiency	high MelB protein extraction efficiency	hardly extracted	0.17	0.17	0.0087	–	–	–	–	–
CCCCCCCCCCCC[C@H]1c2cc(c(OCCO[C@@H]3OC(CO)[C@@H](O)[C@H](O)C3O)cc2OCCO[C@@H]2OC(CO)[C@@H](O)[C@H](O)C2O)[C@H](CCCCCCCCCCCC)c2cc(c(OCCO[C@@H]3OC(CO)[C@@H](O)[C@H](O)C3O)cc2OCCO[C@@H]2OC(CO)[C@@H](O)[C@H](O)C2O)[C@@H](CCCCCCCCCCCC)c2cc(c(OCCO[C@@H]3OC(CO)[C@@H](O)[C@H](O)C3O)cc2OCCO[C@@H]2OC(CO)[C@@H](O)[C@H](O)C2O)[C@@H](CCCCCCCCCCCC)c2cc1c(OCCO[C@@H]1OC(CO)[C@@H](O)[C@H](O)C1O)cc2OCCO[C@@H]1OC(CO)[C@@H](O)[C@H](O)C1O (stereo partly drawn) [RGA-C13]	–	3.7 ± 0.1	–	–	–	–	–	~0.0056	superior to DDM	superior ability to maintain the ligand binding of the receptor compared to DDM	enhanced by almost three times	maintained MelB solubility better than DDM; also recorded: higher protein extraction efficiency than DDM	significantly smaller than that formed of DDM
